# ChEMBL document CHEMBL1125635, “Effect of hydroxyl group configuration in hydroxyethylamine dipeptide isosteres on HIV protease inhibition. Evidence for multiple binding modes” (J Med Chem, 1991)
# How the values were obtained:
# [1] = biological target: T1, Human immunodeficiency virus type 1 protease (Human immunodeficiency virus 1, UniProt Q72874); experiment: In vitro concentration required to inhibit 50% activity of HIV protease was measured (exp 2); assay type: functional
# [2] = biological target: T1, Human immunodeficiency virus type 1 protease; experiment: In vitro concentration required to inhibit 50% activity of HIV protease was measured; assay type: functional
# [3] = biological target: T1, Human immunodeficiency virus type 1 protease; experiment: In vitro binding affinity against HIV protease was measured
Compound,IC50 [1] [µM],IC50 [2] [µM],Ki [3] [µM]
CC(C)(C)OC(=O)[C@@H]1CCCN1C[C@@H](O)[C@H](Cc1ccccc1)NC(=O)[C@H](CC(N)=O)NC(=O)OCc1ccccc1,0.3,0.45,–
CC(C)(C)OC(=O)[C@@H]1CCCN1C[C@H](O)[C@H](Cc1ccccc1)NC(=O)[C@H](CC(N)=O)NC(=O)OCc1ccccc1,0.14,0.051,–
CC(=O)N[C@@H](CO)C(=O)N[C@@H](CC(C)C)C(=O)N[C@@H](CC(N)=O)C(=O)N[C@@H](Cc1ccccc1)[C@H](O)CN1CCC[C@H]1C(=O)OC(C)(C)C,–,0.014,–
CC[C@H](C)[C@H](NC(=O)[C@@H]1CCCN1C[C@@H](O)[C@H](Cc1ccccc1)NC(=O)[C@H](CC(N)=O)NC(=O)OC(C)(C)C)C(=O)N[C@H](C(=O)OC)C(C)C,–,0.85,–
CC[C@H](C)[C@H](NC(=O)[C@@H]1CCCN1C[C@H](O)[C@H](Cc1ccccc1)NC(=O)[C@H](CC(N)=O)NC(=O)OC(C)(C)C)C(=O)N[C@H](C(=O)OC)C(C)C,–,0.016,–
CC(=O)N[C@@H](CO)C(=O)N[C@@H](CC(C)C)C(=O)N[C@@H](CC(N)=O)C(=O)N[C@@H](Cc1ccccc1)[C@@H](O)CN1CCC[C@H]1C(=O)OC(C)(C)C,–,0.014,–
CC[C@H](C)[C@H](NC(=O)[C@@H]1CCCN1C[C@H](O)[C@H](Cc1ccccc1)NC(=O)[C@H](CC(N)=O)NC(=O)OCc1ccccc1)C(=O)N[C@@H](Cc1ccccc1)C(=O)OC,–,0.004,–
CC[C@H](C)[C@H](NC(=O)[C@@H]1CCCN1C[C@H](O)[C@H](Cc1ccccc1)NC(=O)[C@H](CC(N)=O)NC(=O)c1ccc2ccccc2n1)C(=O)N[C@@H](Cc1ccccc1)C(=O)OC,–,0.0023,–
CC[C@H](C)[C@H](NC(=O)[C@@H]1CCCN1CC(O)[C@H](Cc1ccccc1)NC(=O)[C@H](CC(N)=O)NC(=O)[C@H](CC(C)C)NC(=O)[C@H](CO)NC(C)=O)C(=O)N[C@H](C(=O)OC)C(C)C (mixture of isomers),–,0.009,0.0006
CC[C@H](C)[C@H](NC(=O)[C@@H]1CCCN1C[C@H](O)[C@H](Cc1ccccc1)NC(=O)[C@H](CC(N)=O)NC(=O)[C@H](CC(C)C)NC(=O)[C@H](CO)NC(C)=O)C(=O)N[C@H](C(=O)OC)C(C)C (stereo in doubt; 1R),–,0.065,0.02
CC[C@H](C)[C@H](NC(=O)[C@@H]1CCCN1C[C@H](O)[C@H](Cc1ccccc1)NC(=O)[C@H](CC(N)=O)NC(=O)[C@H](CC(C)C)NC(=O)[C@H](CO)NC(C)=O)C(=O)N[C@H](C(=O)OC)C(C)C (stereo in doubt; 1S),–,0.0034,0.00024
